{"source": "patent US8575186B2", "about": "“Epiminocycloalkyl[b] indole derivatives as serotonin sub-type 6 (5-HT6) modulators and uses thereof” (Albany Molecular Research, Inc., priority 2009, dated 2013)", "key": {"human 5-HT6 receptor": {"target": "human 5-HT6 receptor (Homo sapiens (Human), UniProt P50406)", "sequence (P50406 whole entry)": "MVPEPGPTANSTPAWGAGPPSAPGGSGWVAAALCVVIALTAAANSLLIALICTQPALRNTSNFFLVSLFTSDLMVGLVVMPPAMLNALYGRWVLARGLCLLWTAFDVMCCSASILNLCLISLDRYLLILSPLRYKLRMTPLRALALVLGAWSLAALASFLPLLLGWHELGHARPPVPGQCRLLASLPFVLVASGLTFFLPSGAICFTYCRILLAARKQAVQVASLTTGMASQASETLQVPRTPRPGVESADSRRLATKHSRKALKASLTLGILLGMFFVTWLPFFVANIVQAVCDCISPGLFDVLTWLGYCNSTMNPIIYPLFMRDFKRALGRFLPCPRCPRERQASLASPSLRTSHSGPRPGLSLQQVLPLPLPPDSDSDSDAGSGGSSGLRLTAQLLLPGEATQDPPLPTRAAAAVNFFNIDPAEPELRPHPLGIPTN", "test": "radioligand binding assay (SPA format), [N-methyl-3H]-LSD", "conditions": "read-out: human 5HT6 Ki, human 5-HT6 receptor membranes, 10 nM [3H]-LSD"}}, "note": "pKi: −log10 of the molar value. Like-named read-outs stand apart in the source and are kept apart here."}
{"smiles": "Cl.Cn1c2c(c3cc(S(=O)(=O)c4ccccc4)cc(OCc4ccccc4)c31)C1CCC(C2)N1", "note": "(centres unmarked) [Example 86, 2-Phenylsulfonyl-4-benzyloxy-5-methyl-5,6,7,8,9,10-hexahydro-7,10-epiminocyclohepta[b]indole hydrochloride]", "values": [{"measurement": "melting point", "result": "178 to 180", "unit": "°C"}, {"measurement": "pKi", "setting": "human 5-HT6 receptor", "result": 7.85}]}
{"smiles": "Cl.Cn1c2c(c3cc(S(=O)(=O)c4cccc(O)c4)ccc31)C1CCC(C2)N1", "note": "(centres unmarked) [Example 42, 2-(3-Hydroxyphenyl)sulfonyl-5-methyl-5,6,7,8,9,10-hexahydro-7,10-epiminocyclohepta[b]indole hydrochloride]", "values": [{"measurement": "melting point", "result": "208 to 212", "unit": "°C"}, {"measurement": "pKi", "setting": "human 5-HT6 receptor", "result": 7.96}]}
{"smiles": "COc1ccc(S(=O)(=O)c2ccc3c(c2)c2c(n3C)CC3CCC2N3)cc1.Cl", "note": "(centres unmarked) [Example 31, 2-(4-Methoxyphenyl)sulfonyl-5-methyl-5,6,7,8,9,10-hexahydro-7,10-epiminocyclohepta[b]indole hydrochloride]", "values": [{"measurement": "melting point", "result": "210 to 212", "unit": "°C"}, {"measurement": "pKi", "setting": "human 5-HT6 receptor", "result": 7.36}]}
{"smiles": "Cc1cc(S(=O)(=O)c2ccc(N)cc2)cc2c3c(n(C)c12)CC1CCC3N1.Cl", "note": "(centres unmarked) [Example 77, 2-(4-Amino-phenyl)sulfonyl-4,5-dimethyl-5,6,7,8,9,10-hexahydro-7,10-epiminocyclohepta[b]indole hydrochloride]", "values": [{"measurement": "melting point", "result": "244 to 246", "unit": "°C"}, {"measurement": "pKi", "setting": "human 5-HT6 receptor", "result": 8.31}]}
{"smiles": "Cl.Cn1c2c(c3cc(S(=O)(=O)c4cccc5ccccc45)ccc31)C1CCC(C2)N1", "note": "(centres unmarked) [Example 49, 2-(1-Napthyl)sulfonyl-5-methyl-5,6,7,8,9,10-hexahydro-7,10-epiminocyclohepta[b]indole hydrochloride]", "values": [{"measurement": "melting point", "result": "229 to 231", "unit": "°C"}, {"measurement": "pKi", "setting": "human 5-HT6 receptor", "result": 8.85}]}
{"smiles": "Cc1cc(S(=O)(=O)c2cncnc2)cc2c3c(n(C)c12)CC1CCC3N1.Cl", "note": "(centres unmarked) [Example 78, 2-(5-Pyrimidine)sulfonyl-4,5-dimethyl-5,6,7,8,9,10-hexahydro-7,10-epiminocyclohepta[b]indole]", "values": [{"measurement": "melting point", "result": "226 to 228", "unit": "°C"}, {"measurement": "pKi", "setting": "human 5-HT6 receptor", "result": 6.10}]}
{"smiles": "Cl.Cn1c2c(c3cc(S(=O)(=O)n4cc(Cl)c5ccccc54)ccc31)C1CCC(C2)N1", "note": "(centres unmarked) [Example 67, 2-[1-(3-Chloro)-indole]sulfonyl-5-methyl-5,6,7,8,9,10-hexahydro-7,10-epiminocyclohepta[b]indole hydrochloride]", "values": [{"measurement": "melting point", "result": "204 to 206", "unit": "°C"}, {"measurement": "pKi", "setting": "human 5-HT6 receptor", "result": 8.39}]}
{"smiles": "COc1cccc(S(=O)(=O)c2ccc3c(c2)c2c(n3C)CC3CCC2N3)c1.Cl", "note": "(centres unmarked) [Example 41, 2-(3-Methoxyphenyl)sulfonyl-5-methyl-5,6,7,8,9,10-hexahydro-7,10-epiminocyclohepta[b]indole hydrochloride]", "values": [{"measurement": "melting point", "result": "186 to 190", "unit": "°C"}, {"measurement": "pKi", "setting": "human 5-HT6 receptor", "result": 7.77}]}
{"smiles": "CC(C)Nc1cccc(S(=O)(=O)c2ccc3c(c2)c2c(n3C)CC3CCC2N3)c1.Cl", "note": "(centres unmarked) [Example 47, 2-[(3-N-Isopropylamino)phenyl]sulfonyl-5-methyl-5,6,7,8,9,10-hexahydro-7,10-epiminocyclohepta[b]indole hydrochloride]", "values": [{"measurement": "melting point", "result": "208 to 212 °C (dec.)"}, {"measurement": "pKi", "setting": "human 5-HT6 receptor", "result": 7.96}]}
{"smiles": "Cl.O=S(=O)(c1ccccc1)c1ccc2c(c1)c1c(n2-c2ccccc2)CC2CCC1N2", "note": "(centres unmarked) [Example 88, 2-Phenylsulfonyl-5-phenyl-5,6,7,8,9,10-hexahydro-7,10-epiminocyclohepta[b]indole hydrochloride]", "values": [{"measurement": "melting point", "result": "195 to 200", "unit": "°C"}, {"measurement": "pKi", "setting": "human 5-HT6 receptor", "result": 6.46}]}
{"smiles": "Cc1cc(S(=O)(=O)c2cccc(OC(F)(F)F)c2)cc2c3c(n(C)c12)CC1CCC3N1.Cl", "note": "(centres unmarked) [Example 76, 2-(3-Trifluoromethoxy-phenyl)sulfonyl-4,5-dimethyl-5,6,7,8,9,10-hexahydro-7,10-epiminocyclohepta[b]indole hydrochloride]", "values": [{"measurement": "melting point", "result": "220 to 222", "unit": "°C"}, {"measurement": "pKi", "setting": "human 5-HT6 receptor", "result": 8.16}]}
{"smiles": "Cl.Cn1c2c(c3cc(S(=O)(=O)c4cccc(N)c4)ccc31)C1CCC(C2)N1", "note": "(centres unmarked) [Example 44, 2-(3-Aminophenyl)sulfonyl-5-methyl-5,6,7,8,9,10-hexahydro-7,10-epiminocyclohepta[b]indole hydrochloride]", "values": [{"measurement": "melting point", "result": "220 to 222", "unit": "°C"}, {"measurement": "pKi", "setting": "human 5-HT6 receptor", "result": 8.20}]}
{"smiles": "Cl.Cn1c2c(c3cc(S(=O)(=O)c4cc(F)cc(F)c4)ccc31)C1CCC(C2)N1", "note": "(centres unmarked) [Example 55, 2-(3,5-Difluorophenyl)sulfonyl-5-methyl-5,6,7,8,9,10-hexahydro-7,10-epiminocyclohepta[b]indole hydrochloride]", "values": [{"measurement": "melting point", "result": "230 to 235 °C (dec.)"}, {"measurement": "pKi", "setting": "human 5-HT6 receptor", "result": 8.07}]}
{"smiles": "CCn1c2c(c3cc(S(=O)(=O)c4ccccc4)ccc31)C1CCC(C2)N1.Cl", "note": "(centres unmarked) [Example 90, 2-Phenylsulfonyl-5-ethyl-5,6,7,8,9,10-hexahydro-7,10-epiminocyclohepta[b]indole hydrochloride]", "values": [{"measurement": "melting point", "result": "200 to 204 °C (dec.)"}, {"measurement": "pKi", "setting": "human 5-HT6 receptor", "result": 7.28}]}
{"smiles": "Cc1cccc(S(=O)(=O)c2ccc3c(c2)c2c(n3C)CC3CCC2N3)c1.Cl", "note": "(centres unmarked) [Example 37, 2-(3-Methylphenyl)sulfonyl-5-methyl-5,6,7,8,9,10-hexahydro-7,10-epiminocyclohepta[b]indole hydrochloride]", "values": [{"measurement": "melting point", "result": "194 to 196", "unit": "°C"}, {"measurement": "pKi", "setting": "human 5-HT6 receptor", "result": 8.43}]}
{"smiles": "Cl.Cn1c2c(c3cc(S(=O)(=O)c4ccc(C#N)cc4)ccc31)C1CCC(C2)N1", "note": "(centres unmarked) [Example 30, 2-(4-Cyanophenyl)sulfonyl-5-methyl-5,6,7,8,9,10-hexahydro-7,10-epiminocyclohepta[b]indole hydrochloride]", "values": [{"measurement": "melting point", "result": "216 to 218", "unit": "°C"}, {"measurement": "pKi", "setting": "human 5-HT6 receptor; hydrochloride", "result": 6.39}]}
{"smiles": "Cl.Cn1c2c(c3cc(S(=O)(=O)c4cncc(Cl)c4)ccc31)C1CCC(C2)N1", "note": "(centres unmarked) [Example 58, 2-[3-(5-Chloro)-pyridine]sulfonyl-5-methyl-5,6,7,8,9,10-hexahydro-7,10-epiminocyclohepta[b]indole hydrochloride]", "values": [{"measurement": "melting point", "result": "202 to 205 °C (dec.)"}, {"measurement": "pKi", "setting": "human 5-HT6 receptor", "result": 7.36}]}
{"smiles": "Cl.Cn1c2c(c3cc(S(=O)(=O)c4cc(Cl)cc(Cl)c4)ccc31)C1CCC(C2)N1", "note": "(centres unmarked) [Example 54, 2-(3,5-Dichlorophenyl)sulfonyl-5-methyl-5,6,7,8,9,10-hexahydro-7,10-epiminocyclohepta[b]indole hydrochloride]", "values": [{"measurement": "melting point", "result": "190 to 195", "unit": "°C"}, {"measurement": "pKi", "setting": "human 5-HT6 receptor", "result": 8.00}]}
{"smiles": "Cl.Cn1c2c(c3cc(S(=O)(=O)c4ccc(O)cc4)ccc31)C1CCC(C2)N1", "note": "(centres unmarked) [Example 32, 2-(4-Hydroxyphenyl)sulfonyl-5-methyl-5,6,7,8,9,10-hexahydro-7,10-epiminocyclohepta[b]indole hydrochloride]", "values": [{"measurement": "melting point", "result": "210 to 212", "unit": "°C"}, {"measurement": "pKi", "setting": "human 5-HT6 receptor", "result": 7.96}]}
{"smiles": "Cl.Cn1c2c(c3cc(S(=O)(=O)c4cccc(F)c4)ccc31)C1CCC(C2)N1", "note": "(centres unmarked) [Example 35, 2-(3-Fluorophenyl)sulfonyl-5-methyl-5,6,7,8,9,10-hexahydro-7,10-epiminocyclohepta[b]indole hydrochloride]", "values": [{"measurement": "melting point", "result": "240 to 245", "unit": "°C"}, {"measurement": "pKi", "setting": "human 5-HT6 receptor", "result": 8.38}]}
{"smiles": "Cl.Cn1c2c(c3cc(S(=O)(=O)c4ccc(F)cc4)ccc31)C1CCC(C2)N1", "note": "(centres unmarked) [Example 28, 2-(4-Fluorophenyl)sulfonyl-5-methyl-5,6,7,8,9,10-hexahydro-7,10-epiminocyclohepta[b]indole hydrochloride]", "values": [{"measurement": "melting point", "result": "210 to 214", "unit": "°C"}, {"measurement": "pKi", "setting": "human 5-HT6 receptor", "result": 7.22}]}
{"smiles": "Cl.O=S(=O)(c1ccccc1)c1ccc2c(c1)c1c(n2CCO)CC2CCC1N2", "note": "(centres unmarked) [Example 89, 2-Phenylsulfonyl-5-(2-hydroxy)ethyl-5,6,7,8,9,10-hexahydro-7,10-epiminocyclohepta[b]indole hydrochloride]", "values": [{"measurement": "melting point", "result": "185 to 190", "unit": "°C"}, {"measurement": "pKi", "setting": "human 5-HT6 receptor", "result": 6.36}]}
